These results are taken from patent US20220324835A1 (Nurix Therapeutics, Inc., priority 2018, published 2022).

Usually IC50 stands for the concentration that inhibits the measured activity by half. In general, Kd refers to the free concentration of one partner at which half of the binding sites on the other are occupied at equilibrium, for simple one-to-one binding. Low values mean a tighter complex, high ones a looser complex.

Experiment [1] deals with T1, Cbl-b (Homo sapiens, UniProt Q13191). Nature of the experiment: Cbl-b inhibition assay (Cbl-b activity assay, FRET, Biological Example 1; 100 mM NaCl, 60 nM Src kinase). Particulars: upper bound stated in text lists; read-out: IC50 values in the Cbl-b inhibition assay of Biological Example 1. The class given is biochemical. Put shortly: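 Inhibitor activity is measured as reduced terbium-to-fluorescein FRET between streptavidin-terbium on biotinylated Cbl-b and Bodipy-fluorescein ubiquitin carried by an irreversible UbcH5B-Ub conjugate, binding of which depends on Src phosphorylation of Cbl-b.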

In experiment [2] the test system is T-cell. Put plainly: CD25 cell surface staining on T-cells stimulated with anti-CD3 antibody alone (Biological Example 2). Type of experiment: cell-based. Particulars: primary human total T-cells, baseline = anti-CD3/anti-CD28 stimulated cells without inhibitor, read-out: CD25 staining, Anti-CD3 stimulation, fold change over baseline; for fold induction at 1 µM: 1 μM compound; for fold induction at 8 µM: 8 μM compound.

In another experiment the target is Cbl-b (residues 36-427) (Homo sapiens, UniProt Q13191). Put plainly: Cbl-b binding assay (SPR, Biacore T200). The conditions noted are these: 20° C., 1:1 binding model. Put shortly:
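NeutrAvidin capture chip, 20° C; 50 s injections at 50 μl/min, 90-180 s dissociation; 0.3 M NaCl regeneration. Asterisked column: 50 mM NaCl buffer and 30 nM Src kinase in place of 100 mM NaCl and 60 nM Src kinase. 1:1 fit.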
(SPR reads the build-up and loss of mass on a sensor chip optically.)

For experiment [3], the target named is T1, Cbl-b. Put plainly: Cbl-b activity assay (Cbl-b inhibition assay), TR-FRET of Cbl-b interaction with UbcH5B-Ub. The conditions noted are these: assay buffer with 100 mM NaCl, 60 nM Src kinase; read-out: Cbl-b activity IC50. Type of experiment: biochemical. Put shortly: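 Compound-treated Cbl-b was incubated 1.5 h with Src kinase (60 nM final; 30 nM for asterisked values, which also used 50 mM instead of 100 mM NaCl), 1 mM ATP and 5 mM MgCl2. Binding to fluorescent Ub-loaded UbcH5B (C85K mutant) was then read by TR-FRET after 1 h more.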

Experiment [4] has as its system T-cell. Nature of the experiment: IL-2 secretion from T-cells co-stimulated with anti-CD3 and anti-CD28 antibody (Biological Example 2). Type of experiment: cell-based, human. Particulars: Homo sapiens, T-cell, primary human total T-cells, baseline = anti-CD3/anti-CD28 stimulated cells without inhibitor, read-out: IL-2 secretion, Anti-CD3/Anti-CD28 stimulation, fold change over baseline; for fold induction at 0.3 µM: 0.3 μM compound; for fold induction at 1 µM: 1 μM compound; for fold induction at 4 µM: 4 μM compound. In short, it runs like this:
(§1)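 Values are fold-change over baseline: readings (IL-2 release, CD25 staining) from inhibitor-treated T-cells divided against untreated cells […]. No detailed procedure stated.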

For experiment [5], the system named is T-cell. Nature of the experiment: CD25 cell surface staining on T-cells co-stimulated with anti-CD3 and anti-CD28 antibody (Biological Example 2). Particulars: Homo sapiens, T-cell, primary human total T-cells, baseline = anti-CD3/anti-CD28 stimulated cells without inhibitor, read-out: CD25 staining, Anti-CD3/Anti-CD28 stimulation, fold change over baseline; for fold induction at 0.3 µM: 0.3 μM compound; for fold induction at 1 µM: 1 μM compound; for fold induction at 4 µM: 4 μM compound. Type of experiment: cell-based, human. Put shortly:
as §1

Experiment [6] deals with T-cell. Nature of the experiment: IL-2 secretion from T-cells stimulated with anti-CD3 antibody alone (Biological Example 2). The class given is cell-based. Particulars: primary human total T-cells, read-out: IL-2 secretion, Anti-CD3 stimulation, fold change over baseline; for fold induction at 1 µM: 1 μM compound; for fold induction at 8 µM: 8 μM compound.

T1 sequence (Q13191 36-427): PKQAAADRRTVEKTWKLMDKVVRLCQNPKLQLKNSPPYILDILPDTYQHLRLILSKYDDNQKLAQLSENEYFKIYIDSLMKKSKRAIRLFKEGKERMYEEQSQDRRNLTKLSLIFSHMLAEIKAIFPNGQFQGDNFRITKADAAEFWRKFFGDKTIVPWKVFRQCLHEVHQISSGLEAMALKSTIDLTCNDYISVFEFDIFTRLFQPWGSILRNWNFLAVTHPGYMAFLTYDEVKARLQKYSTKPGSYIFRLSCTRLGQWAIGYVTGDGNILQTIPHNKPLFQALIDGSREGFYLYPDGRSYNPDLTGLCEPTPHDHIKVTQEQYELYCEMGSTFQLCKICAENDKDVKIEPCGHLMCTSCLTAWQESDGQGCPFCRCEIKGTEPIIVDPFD
Chain of Cbl-b (residues 36-427) (Q13191 36-427): as above

`Cc1c[nH]nc1-c1cc2c(c(C(F)(F)F)c1)CN(c1cccc([C@H](C)Cc3nncn3C)c1)C2=O` [Compound 377, 6-(4-methyl-1H-pyrazol-3-yl)-2-{3-[(2R)-1-(4-methyl-4H-1,2,4-triazol-3-yl)propan-2-yl]phenyl}-4-(trifluoromethyl)-2,3-dihydro-1H-isoindol-1-one]: the figures for the IC50 on Cbl-b [1] and at Cbl-b [3] were at most 100 nM and below 100 nM, respectively. Moreover, the fold induction at 1 µM is 0.601 to 0.8 in the experiment on T-cell [2], 5 to 7.5 with T-cell [4], 1.51 to 1.75 in the experiment on T-cell [5] and above 0.201 in the experiment with T-cell [6]. Further, the values for the fold induction at 8 µM in the experiment with T-cell [2] and in the experiment with T-cell [6] were 0.801 to 1 and above 0.201, respectively. The same compound came in with a Kd on Cbl-b (residues 36-427) below 100 nM. In addition, the figures for the fold induction at 0.3 µM in the experiment on T-cell [4] and in the experiment with T-cell [5] were 1.01 to 2.5 and 1.31 to 1.5, respectively. For the same compound, the results for the fold induction at 4 µM in the experiment with T-cell [4] and in the experiment on T-cell [5] were above 7.5 and above 1.76, respectively.

Consider `Cc1n[nH]c(C)c1-c1cc2c(c(C(F)(F)F)c1)CN(c1cccc([C@H](C)Cc3nncn3C)c1)C2=O` [Compound 378, 6-(3,5-dimethyl-1H-pyrazol-4-yl)-2-{3-[(2R)-1-(4-methyl-4H-1,2,4-triazol-3-yl)propan-2-yl]phenyl}-4-(trifluoromethyl)-2,3-dihydro-1H-isoindol-1-one], for which the values for the IC50 at Cbl-b [1] and on Cbl-b [3] were at most 100 nM and below 100 nM, respectively. Moreover, the fold induction at 1 µM in the experiment with T-cell [2] is above 1; with T-cell [4], above 7.5; in the experiment on T-cell [5], 1.51 to 1.75; with T-cell [6] it was above 0.201. Further, the fold induction at 8 µM with T-cell [2] is above 1; in the experiment on T-cell [6], above 0.201. For the same compound, on Cbl-b (residues 36-427), the Kd is below 100 nM. Moreover, the fold induction at 0.3 µM was in the range of 2.51 to 5 in the experiment on T-cell [4] and 1.31 to 1.5 in the experiment with T-cell [5]. Besides, the fold induction at 4 µM is above 7.5 in the experiment with T-cell [4] and above 1.76 with T-cell [5].

As for `C[C@H](Cc1nncn1C)c1cccc(N2Cc3c(cc(N[C@H]4CCNC4)cc3C(F)(F)F)C2=O)c1` [Compound 379, 2-(3-((R)-1-(4-methyl-4H-1,2,4-triazol-3-yl)propan-2-yl)phenyl)-6-(((S)-pyrrolidin-3-yl)amino)-4-(trifluoromethyl)isoindolin-1-one], the IC50 at Cbl-b [1] was at most 100 nM; at Cbl-b [3], below 100 nM. Also, the fold induction at 1 µM was 0.801 to 1 with T-cell [2], 2.51 to 5 in the experiment on T-cell [4], 1.01 to 1.3 in the experiment on T-cell [5] and 0.101 to 0.15 in the experiment with T-cell [6]. Also, the fold induction at 8 µM in the experiment with T-cell [2] was above 1; with T-cell [6], 0.151 to 0.2. On Cbl-b (residues 36-427), this compound yielded a Kd below 100 nM. Also, the fold induction at 0.3 µM lay in the range of 1.01 to 2.5 with T-cell [4] and 1.01 to 1.3 in the experiment on T-cell [5]. The fold induction at 4 µM in the experiment with T-cell [4] lay in the range of 2.51 to 5; in the experiment on T-cell [5], 1.01 to 1.3.

On to `C[C@H](Cc1nncn1C)c1cccc(N2Cc3c(cc(N(C)[C@H]4CCNC4)cc3C(F)(F)F)C2=O)c1` [Compound 380, 6-(methyl((S)-pyrrolidin-3-yl)amino)-2-(3-((R)-1-(4-methyl-4H-1,2,4-triazol-3-yl)propan-2-yl)phenyl)-4-(trifluoromethyl)isoindolin-1-one], for which the values for the half-inhibitory concentration (IC50) at Cbl-b [1] and on Cbl-b [3] were at most 100 nM and below 100 nM, respectively. Also, the fold induction at 1 µM in the experiment with T-cell [2] lay in the range of 0.801 to 1; with T-cell [4], 2.51 to 5; in the experiment on T-cell [5] it was 1.31 to 1.5; with T-cell [6], 0.151 to 0.2. Also, the figures for the fold induction at 8 µM in the experiment on T-cell [2] and in the experiment with T-cell [6] were above 1 and above 0.201, respectively. At Cbl-b (residues 36-427), this compound gave a dissociation constant Kd below 100 nM. The fold induction at 0.3 µM in the experiment with T-cell [4] lay within 2.51 to 5; in the experiment on T-cell [5] it was 1.31 to 1.5. For the same compound, the fold induction at 4 µM is above 7.5 with T-cell [4] and 1.51 to 1.75 with T-cell [5].

For `Cc1[nH]ncc1-c1cc2c(c(C(F)(F)F)c1)CN(c1cccc([C@H](C)Cc3nncn3C)c1)C2=O` [Compound 381, 6-(5-methyl-1H-pyrazol-4-yl)-2-{3-[(2R)-1-(4-methyl-4H-1,2,4-triazol-3-yl)propan-2-yl]phenyl}-4-(trifluoromethyl)-2,3-dihydro-1H-isoindol-1-one], the IC50 at Cbl-b [1] was at most 100 nM; on Cbl-b [3], below 100 nM. Besides, the fold induction at 1 µM in the experiment on T-cell [2] fell in the range of 0.801 to 1; with T-cell [4], 5 to 7.5; with T-cell [5] it was 1.51 to 1.75; in the experiment with T-cell [6], 0.151 to 0.2. For the same compound, the fold induction at 8 µM was above 1 in the experiment on T-cell [2] and above 0.201 in the experiment with T-cell [6]. The dissociation constant Kd at Cbl-b (residues 36-427) is below 100 nM. In addition, the fold induction at 0.3 µM in the experiment on T-cell [4] was 2.51 to 5; in the experiment with T-cell [5], 1.31 to 1.5. The fold induction at 4 µM in the experiment with T-cell [4] was above 7.5; in the experiment on T-cell [5], 1.51 to 1.75.

Take `C[C@H](Cc1nncn1C)c1cccc(N2Cc3c(cc([C@H]4CCCNC4)cc3C(F)(F)F)C2=O)c1` [Compound 383, 2-(3-((R)-1-(4-methyl-4H-1,2,4-triazol-3-yl)propan-2-yl)phenyl)-6-((R)-piperidin-3-yl)-4-(trifluoromethyl)isoindolin-1-one]: the IC50 on Cbl-b [1] was at most 100 nM; on Cbl-b [3], below 100 nM. For the same compound, the fold induction at 1 µM in the experiment with T-cell [2] was 0.801 to 1; in the experiment on T-cell [4], 5 to 7.5; in the experiment with T-cell [5], 1.51 to 1.75; in the experiment on T-cell [6] it was above 0.201. The fold induction at 8 µM with T-cell [2] was above 1; in the experiment with T-cell [6], above 0.201. Also, the dissociation constant (Kd) on Cbl-b (residues 36-427) was 100 to 300 nM. Also, the fold induction at 0.3 µM in the experiment with T-cell [4] is 2.51 to 5; in the experiment on T-cell [5], 1.31 to 1.5. Further, the fold induction at 4 µM is above 7.5 in the experiment on T-cell [4] and 1.51 to 1.75 with T-cell [5].

In the case of `C[C@H](Cc1nncn1C)c1cccc(N2Cc3c(cc(-n4cccn4)cc3C(F)(F)F)C2=O)c1` [Compound 384, (R)-2-(3-(1-(4-methyl-4H-1,2,4-triazol-3-yl)propan-2-yl)phenyl)-6-(1H-pyrazol-1-yl)-4-(trifluoromethyl)isoindolin-1-one], the IC50 at Cbl-b [1] is at most 100 nM; on Cbl-b [3] it was below 100 nM. Besides, the fold induction at 1 µM with T-cell [2] was above 1; with T-cell [4] it was above 7.5; in the experiment on T-cell [5], 1.51 to 1.75; in the experiment with T-cell [6] it was above 0.201. Further, the fold induction at 8 µM in the experiment on T-cell [2] was above 1; with T-cell [6], above 0.201. In addition, on Cbl-b (residues 36-427), the dissociation constant (Kd) is below 100 nM. For the same compound, the figures for the fold induction at 0.3 µM with T-cell [4] and with T-cell [5] were 2.51 to 5 and 1.31 to 1.5, respectively. Besides, the fold induction at 4 µM is above 7.5 with T-cell [4] and 1.51 to 1.75 in the experiment on T-cell [5].

For the compound `C[C@H](Cc1nncn1C)c1cccc(N2Cc3c(cc(CO)cc3C(F)(F)F)C2=O)c1` [Compound 392, (R)-6-(hydroxymethyl)-2-(3-(1-(4-methyl-4H-1,2,4-triazol-3-yl)propan-2-yl)phenyl)-4-(trifluoromethyl)isoindolin-1-one], the IC50 at Cbl-b [1] is at most 100 nM; at Cbl-b [3] it was below 100 nM. Further, the fold induction at 1 µM in the experiment on T-cell [2] is above 1; in the experiment with T-cell [4] it was 5 to 7.5; in the experiment on T-cell [5], 1.01 to 1.3; in the experiment on T-cell [6], 0.151 to 0.2. In addition, the fold induction at 8 µM is above 1 in the experiment on T-cell [2] and above 0.201 with T-cell [6]. This compound yielded a Kd on Cbl-b (residues 36-427) below 100 nM. For the same compound, the fold induction at 0.3 µM lay within 2.51 to 5 in the experiment with T-cell [4] and 1.01 to 1.3 with T-cell [5]. The fold induction at 4 µM in the experiment with T-cell [4] is above 7.5; in the experiment on T-cell [5], 1.31 to 1.5.
